Values quoted from earlier work as cited in patent US5001113A, “Di- or tripeptide renin inhibitors containing lactam conformational restriction in ACHPA” (Merck & Co., Inc., priority 1990, dated 1991).
Where a SMILES comes first, the peptide text is derived from it. [ ]: non-standard residue; d: D form. The star is where a group is joined. Sta = CC(C)C[C@H](N)[C@@H](O)CC(=O)O; Isovaleryl = CC(C)CC(=O)*

System: hog renin
Settings: after the injection of hog renin into nephrectomized rats

## CC(C)CC(=O)N[C@H](C(=O)N[C@H](C(=O)N[C@@H](CC(C)C)[C@@H](O)CC(=O)N[C@@H](C)C(=O)N[C@@H](CC(C)C)[C@@H](O)CC(=O)O)C(C)C)C(C)C [pepstatin] (Isovaleryl-VV[Sta]A[Sta]-OH)
  blood pressure in vivo: reduces blood pressure
